# Experimental data reported in patent publication US20210284742A1, “METHODS OF TREATING OR PREVENTING MUCORMYCOSIS” (University of Maryland, Baltimore, priority 2018, published 2021).
# Legend:
# [1] = system: A549 alveolar epithelial cells infected with R. delemar spores; assay: Measurement of host cell endocytosis of R. delemar by A549 cells (Uvitex differential fluorescence); format: cell-based, human; conditions: for endocytosis of R. delemar spores: A549 cells pretreated 1 h with 25 μM Gefitinib or 25 μg/ml Cetuximab, 3 h infection, vs vehicle or IgG1 control antibody
# Procedure: Measurement of host cell endocytosis. 12-mm glass coverslips were seeded with A549 alveolar epithelial cells. […] For controls, host cells will be incubated with DMSO (the solvent used to reconstitute the inhibitor) or 25 μg/ml mouse IgG antibody in parallel. Host cells were then infected with 2×10^5 R. delemar spores. After incubation for 3 h, cells were fixed in 3% paraformaldehyde and stained for 1 h with 1% Uvitex, which specifically binds to chitin in the fungal cell wall. After washing with PBS, coverslips were mounted on a glass slide with a drop of ProLong Gold anti-fade reagent (Molecular Probes) and sealed. The total number of cell-associated organisms (i.e. fungi adhering to the monolayer) per high-powered field were determined by phase-contrast microscopy. The same field will be examined by epifluorescence microscopy, and the number of brightly fluorescent, uninternalized fungi were determined. The number of endocytosed organisms was calculated by subtracting the number of fluorescent fungi from the total number of visible fungi. At least 400 organisms were counted per treatment group in at least 15 different fields per coverslip. Experiments were performed in duplicate or triplicate on at least two separate days.
# 12-mm glass coverslips in 12 well dishes will be seeded with A549 alveolar epithelial cells. Cells were then pre-treated 1 h with inhibitors. For controls, host cells were incubated with the appropriate amount of diluent used to reconstitute the inhibitor in parallel. Host cells were then infected with 2×10^6 Rdelemar. After incubation for 3 h, cells were fixed in 3% paraformaldehyde and stained for 1 h with 1% Uvitex, which specifically binds to chitin in the fungal cell wall. After washing with PBS, coverslips were mounted on a glass slide with a drop of ProLong Gold anti-fade reagent (Molecular Probes) and sealed. The total number of cell-associated organisms (i.e., fungi adhering to the monolayer) per high-powered field was determined by phase-contrast microscopy. The same exact field was examined by epifluorescence microscopy, and the number of brightly fluorescent, uninternalized fungi will be determined. The number of endocytosed organisms is calculated by subtracting the number of fluorescent organisms from the total number of visible organisms. At least 400 organisms were counted in at least 15 different fields per coverslip. Experiments were performed in duplicate on separate days. Data will be expressed as median f interquartile range.
# PGR = PGR translocation to the nucleus during R. delemar infection (confocal microscopy); format: cell-based, human; conditions: A549 cells pretreated with Gefitinib 1 h, R. delemar infection 2 h (FIG. 16)
# Procedure: Translocation of host PGR was visualized using the Zeiss LSM Duo confocal microscopy system. 12-mm glass coverslips in 12 well dishes were seeded with A549 alveolar epithelial cells and infected with 2×10^5 R. delemar or R. oryzae that have been incubated in F12K+10% FBS at 37° C. for 2 h. After a 2 h incubation at 37° C., cells were washed with HBSS and fixed with 3% paraformaldehyde. Cells were incubated with anti-PGR (Aviva MS-196-P1, recognizes B) for 1 h or overnight in 0.1% BSA for 1 hour. Coverslips were washed and counterstained with Alexa Fluor 546-labeled goat anti-rabbit or Alexa Fluor 488-goat anti-mouse. After washing, the coverslip will be mounted on a glass slide with a drop of ProLong Gold antifade reagent (Molecular Probes) and viewed by confocal fluorescent microscopy.
# R. delemar = assay: Tissue fungal burden of lungs and brains by qPCR in neutropenic mice; format: in vivo; conditions: 10 mg/kg starting 4 h post infection through Day +3, organs collected Day +4, qPCR
# Procedure: Murine models of Mucormycosis. Male ICR mice (20-25 g from Envigo) were immunosuppresed by cyclophosphamide (200 mg/kg administered intraperotenually [i.p]) and cortisone acetate (500 mg/kg, adminstered subcutaneously) given on days −2, +3, and +9 relative to infection. […] To control for bacterial infection, immunosuppressed mice received 50 mg/L Baytrial (enrofloxacin: Bayer, Leverkusen, Germany) ad libitum on Day −3 thorough Day 0, after which Baytril was replaced with daily ceftazidime (5 mg/mouse) treatment adminstered subcutaneously through day+13 days post infection. […] On Day +4, mice were sacrificed and lungs and brains, representing primary and secondary target organs (Luo G, Gebremariam T, Lee H, French S W, Wiederhold N P, Patterson T F, Filler S G, Ibrahim A S. 2013. Efficacy of liposomal amphotericin B and posaconazole in intratracheal models of murine mucormycosis. Antimicrobial agents and chemotherapy 57:3340-7), were collected and processed for tissue fungal burden by qPCR (Ibrahim A S, Bowman J C, Avanessian V, Brown K, Spellberg B, Edwards J E, Jr., Douglas C M. 2005. Caspofungin inhibits Rhizopus oryzae 1,3-beta-D-glucan synthase, lowers burden in brain measured by quantitative PCR, and improves survival at a low but not a high dose during murine disseminated zygomycosis. […]
# Statistical Analyses. […] Data were expressed as median±interquartile range. […]
structure (smiles),measurement,setting,value
COc1cc2ncnc(Nc3ccc(F)c(Cl)c3)c2cc1OCCCN1CCOCC1 [Gefitinib],endocytosis of R. delemar spores,[1],significantly reduced
same,endocytosis of R. delemar spores,[1]; listed as Gefinitib,did not completely block
same,endocytosis after pre-treatment of R. delemar spore preparations,[1]; spore preparations pre-treated with drug prior to the infection,did not reduce
same,translocation of PGR from the cytosol to the nucleus,PGR,reduced
same,reduction in fungal burden in organs (lungs and brains) compared to placebo-treated mice,R. delemar,~1 log
